Values quoted from earlier work, collected in patent US20260131008A1, “HYALURONIC ACID BASED DRUG DELIVERY SYSTEMS” (priority 2023, published 2026).

Conditions: in vivo

- vitreal half-life: weeks
- vitreal half-life, shortest estimates: 48 h
Substance: hyaluronic acid [Uncrosslinked HA]
